Measurements published in patent publication US20250206717A1, “COMPOUND HAVING ANTI-TUMOR ACTIVITY AND USE THEREOF” (Innovstone Therapeutics Limited, priority 2021, published 2025).
Structures can show the parent of a compound that is named as a salt.

test system: human B-cell non-Hodgkin lymphoma Z-138 cells; experiment: Growth inhibitory activity on Z-138 cells (CellTiter-Glo, 5 days); type: cell-based; details: 5 days (120H), read-out: measured cell growth inhibitory IC50 value (Z-138 cell growth)
Procedure: Vi-Cell XR cell counter, Beckmancoulter.
Cells were revived and cultured in an incubator at 37° C./5% CO2 according to the above-mentioned culturing conditions.
Periodical passaging was performed, and cell lines with good growth status in about two generations were taken for plating.
I. Cells were taken from the incubator. The cell suspension was transferred to a 50 mL centrifuge tube, and centrifuged at
800-1000 rpm for 3-5 minutes. The supernatant was discarded. An appropriate volume of culture medium was added to the centrifuge tube and gently beated to resuspend the cells evenly. Cells were counted using a Vi-Cell XR cell counter.
II. According to the measured cell density, the cell suspension was adjusted to an appropriate concentration.
III. The cell suspension was added into the 384-well plate, 40 μL/well, containing 700 cells/well, and an equal volume of culture medium without cells was added to the blank control well.
I. A compound was dissolved in 100% DMSO to formulate a 10 mM stock solution.
II. The stock solution with a concentration of 10 mM was taken, diluted with DMSO to a 2 mM solution, which was used as the starting concentration to perform a 4× gradient dilution with DMSO for 9 points.
III. 200 nL of the above compound solutions in gradient concentrations were taken and added to each well respectively.
To the blank control well and the DMSO control well were respectively added 200 nL DMSO solutions, and the final concentration of DMSO was 0.5%.
IV. The cell plate was incubated in a carbon dioxide incubator for 5 days (120H).
I. CellTiter-Glo buffer was thawed and allowed to come to room temperature.
II. A lyophilized CellTiter-Glo substrate was allowed to come to room temperature.
III. CellTiter-Glo buffer was added to a bottle of CellTiter-Glo substrate to dissolve the substrate to formulate a CellTiter-Glo working solution.
IV. The working solution was slowly vortexed to fully dissolve the contents.
V. The cell culture plate was taken and allowed to equilibrate to room temperature.
VI. […] of a mixed CellTiter Glo reagent was added to each well, oscillated for 10 minutes in the dark, and incubated for 10 minutes.
The inhibition rates (IRs) of the detected compounds were calculated according to the following formula:
IR (%)=(1−(RLUcompound−RLUblank control)/(RLUDMSO−RLUblank control)*100%,
XLFit was used to plot the efficacy inhibition rate curve, and the IC50 value was calculated using the following 4-parameter model: [fit=(A±((B−A)/(1+((C/x)^D))))].

SMILES | IC50
COCCCCNc1cc(C(=O)N2CC[C@@H](N3CCc4ccccc4C3)[C@H](O)C2)nc(-c2ccccc2)n1 (stereo in doubt) [Example 45] | 1320 nM
CC(=O)N1CC(Nc2cc(C(=O)N3CC[C@@H](N4CCc5ccccc5C4)[C@H](O)C3)nc(-c3ccccc3)n2)C1 [Example 39] | 135 nM
CC(=O)N1CCC(Nc2cc(C(=O)N3CC[C@@H](N4CCc5ccccc5C4)[C@H](O)C3)nc(-c3cc4ccccc4s3)n2)CC1 [Example 66] | 1360 nM
O=C(c1ccc(C(F)(F)F)cc1)N1CCC(Nc2cc(C(=O)N3CC[C@@H](N4CCc5ccccc5C4)[C@H](O)C3)ncn2)CC1 [Example 153] | 13.8 nM
O=C(c1ccccc1)N1CCC(Nc2cc(C(=O)N3CC[C@@H](N4CCc5ccccc5C4)[C@H](O)C3)ncn2)CC1 [Example 158] | 19 nM
O=C(c1ccncc1)N1CCC(Nc2cc(C(=O)N3CC[C@@H](N4CCc5ccccc5C4)[C@H](O)C3)ncn2)CC1 [Example 165] | 33.7 nM
O=C(c1ccncn1)N1CCC(Nc2cc(C(=O)N3CC[C@@H](N4CCc5ccccc5C4)[C@H](O)C3)ncn2)CC1 [Example 170] | 62.8 nM
Cc1ccc(C(=O)N2CCC(Nc3cc(C(=O)N4CC[C@@H](N5CCc6ccccc6C5)[C@H](O)C4)ncn3)CC2)cc1 [Example 171] | 11.5 nM
O=C(c1cc(NC2CCN(C(=O)c3cccs3)CC2)nc(OC2CCCC2)n1)N1CC[C@@H](N2CCc3ccccc3C2)[C@H](O)C1 [Example 194] | 11 nM
CCC(CC)Oc1nc(NC2CCN(C(=O)c3ccccc3)CC2)cc(C(=O)N2CC[C@@H](N3CCc4ccccc4C3)[C@H](O)C2)n1 [Example 202] | 8 nM
CC(C)Oc1nc(NC2CCN(C(=O)c3cccs3)CC2)cc(C(=O)N2CC[C@@H](N3CCc4ccccc4C3)[C@H](O)C2)n1 [Example 207] | 12 nM
CC(C)COc1nc(NC2CCN(C(=O)c3ccn(C)n3)CC2)cc(C(=O)N2CC[C@@H](N3CCc4ccccc4C3)[C@H](O)C2)n1 [Example 212] | 22.2 nM
Cn1cc(N2CCC(Nc3cc(C(=O)N4CC[C@@H](N5CCc6ccccc6C5)[C@H](O)C4)nc(OC4CCCC4)n3)CC2)cn1 [Example 215] | 157 nM
CC(C)Oc1nc(NC2CCN(C(=O)c3ccn(C)n3)CC2)cc(C(=O)N2CC[C@@H](N3CCc4ccccc4C3)[C@H](O)C2)n1 [Example 217] | 60.5 nM
CCC(CC)Oc1nc(NC2CCN(C(=O)c3cnn(C)c3)CC2)cc(C(=O)N2CC[C@@H](N3CCc4ccccc4C3)[C@H](O)C2)n1 [Example 243] | 5.8 nM
Cn1cc(C(=O)N2CCC(Nc3cc(C(=O)N4CC[C@@H](N5CCc6ccccc6C5)[C@H](O)C4)nc(SC4CCCC4)n3)CC2)cn1 [Example 253] | 7.4 nM
CN(C)CCCOc1nc(NC2COC2)cc(C(=O)N2CC[C@@H](N3CCc4ccccc4C3)[C@H](O)C2)n1 [Example 259] | 1190 nM
CC(=O)N1CCC(Nc2cc(OC3CCCC3)nc(C(=O)N3CC[C@@H](N4CCc5ccccc5C4)[C@H](O)C3)c2)CC1 [Example 276] | 111 nM
CC(=O)N1CCC(Nc2cc(C(=O)N3CC[C@@H](N4CCc5ccccc5C4)[C@H](O)C3)nc(Nc3ccccc3)n2)CC1 [Example 339] | 65.3 nM
COc1nc(NC2CCN(C(=O)c3ccc(C)cc3)CC2)cc(C(=O)N2CC[C@@H](N3CCc4ccccc4C3)[C@H](O)C2)n1 [Example 392, ((3R,4R)-4-(3,4-dihydroisoquinoline-2(1H)-yl)-3-hydroxypiperidine-1-yl)(2-methoxy-6-((1-(4-methylbenzoyl)piperidine-4-yl)amino)pyrimidine-4-yl)methanone hydrochloride] | 12.3 nM
[2H]C1([2H])CN([C@@H]2CCN(C(=O)c3cc(NC4CCN(C(=O)c5ccccc5)CC4)nc(OC(C)C)n3)C[C@H]2O)Cc2ccccc21 [Example 401, (6-((1-(benzoyl)piperidine-4-yl)amino)-2-isopropoxypyrimidine-4-yl)((3R,4R)-4-(3,4-dihydroisoquinoline-2(1H)-yl-4,4-d2)-3-hydroxypiperidine-1-1)methanone] | 16 nM

biological target: PRMT5 (Homo sapiens (Human), UniProt O14744); experiment: Inhibitory activity against PRMT5 enzyme activity ([3H]-SAM FlashPlate assay); type: biochemical; details: PRMT5 5 nM, [3H]-SAM 0.3 μM, polypeptide substrate 100 nM; read-out: measured enzyme inhibitory IC50 value (PRMT5 enzyme activity)
Sequence (O14744 2-637): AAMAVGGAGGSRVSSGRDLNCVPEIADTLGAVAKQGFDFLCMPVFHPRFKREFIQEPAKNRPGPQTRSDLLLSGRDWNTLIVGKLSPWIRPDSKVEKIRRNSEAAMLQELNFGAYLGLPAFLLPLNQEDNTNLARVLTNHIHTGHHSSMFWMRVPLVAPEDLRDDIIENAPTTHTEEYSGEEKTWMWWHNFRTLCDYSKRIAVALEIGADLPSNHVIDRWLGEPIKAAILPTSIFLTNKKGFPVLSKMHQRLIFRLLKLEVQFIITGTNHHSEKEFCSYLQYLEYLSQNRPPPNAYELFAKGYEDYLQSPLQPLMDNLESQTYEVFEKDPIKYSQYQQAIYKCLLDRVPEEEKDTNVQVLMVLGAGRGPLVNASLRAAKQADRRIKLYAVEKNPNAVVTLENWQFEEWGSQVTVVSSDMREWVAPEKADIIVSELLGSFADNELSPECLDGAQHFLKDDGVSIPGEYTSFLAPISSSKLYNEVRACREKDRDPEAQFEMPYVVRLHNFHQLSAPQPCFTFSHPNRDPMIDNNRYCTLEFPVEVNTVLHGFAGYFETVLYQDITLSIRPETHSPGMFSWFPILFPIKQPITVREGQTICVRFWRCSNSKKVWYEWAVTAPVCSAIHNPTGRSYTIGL
Sequence (Q9BQA1 2-342 partner): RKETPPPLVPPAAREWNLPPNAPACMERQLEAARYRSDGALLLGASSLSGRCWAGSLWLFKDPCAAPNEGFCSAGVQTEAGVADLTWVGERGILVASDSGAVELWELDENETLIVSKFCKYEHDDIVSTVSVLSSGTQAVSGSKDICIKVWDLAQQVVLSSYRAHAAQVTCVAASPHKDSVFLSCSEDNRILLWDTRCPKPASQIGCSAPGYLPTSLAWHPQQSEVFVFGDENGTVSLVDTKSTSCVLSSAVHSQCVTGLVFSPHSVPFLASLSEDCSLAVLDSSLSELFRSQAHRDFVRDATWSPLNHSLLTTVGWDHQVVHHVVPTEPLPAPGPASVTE

SMILES | IC50
CC(=O)N1CCC(Oc2cc(C(=O)N3CC[C@H](N4CCc5ccccc5C4)[C@@H](O)C3)ncn2)CC1 (relative stereo) [Example 1, trans-1-(4-((6-(4-(3,4-dihydroisoquinoline-2(1H)-yl)-3-hydroxypiperidine-1-carbonyl)pyrimidine-4-yl)oxy)piperidine-1-yl)ethane-1-one] | 65 nM
CC(=O)N1CCC(Nc2cc(C(=O)N3CC[C@@H](N4CCc5ccccc5C4)[C@H](O)C3)nc(C)n2)CC1 [Control Example 2, 1-(4-((6-((3R,4R)-4-(3,4-dihydroisoquinoline-2(1H)-yl)-3-hydroxypiperidine-1-carbonyl)-2-methylpyrimidine-4-yl)amino)piperidine-1-yl)ethanone] | 36 nM
CC(=O)N1CCC(Nc2cc(C(=O)N3CC[C@H](N4CCc5ccccc5C4)[C@@H](O)C3)nc(-c3ccccc3F)n2)CC1 [Example 12] | 35.2 nM
O=C(c1cc(NC2CCCCC2)nc(-c2ccccc2)n1)N1CC[C@@H](N2CCc3ccccc3C2)[C@H](O)C1 [Example 37] | 99.8 nM
C=Cc1nc(NC2CCN(C(C)=O)CC2)cc(C(=O)N2CC[C@@H](N3CCc4ccccc4C3)[C@H](O)C2)n1 [Example 46] | 29.1 nM
CC(=O)N1CCC(Nc2cc(C(=O)N3CC[C@@H](N4CCc5ccccc5C4)[C@H](O)C3)nc(C(=O)N(C)C)n2)CC1 [Example 59] | 107 nM
CC(=O)N1CCC(Nc2nc(C(=O)N3CC[C@@H](N4CCc5ccccc5C4)[C@H](O)C3)nc(-c3ccccc3)n2)CC1 [Example 70] | 66.4 nM
CC(=O)N1CCC(Nc2cc(C(=O)N3CC[C@H](N4CCc5ccccc5C4)[C@@H](O)C3)nc(-n3ccnc3)n2)CC1 [Example 73] | 110 nM
O=C(c1ccc(C(F)(F)F)cc1)N1CCC(Nc2cc(C(=O)N3CC[C@@H](N4CCc5ccccc5C4)[C@H](O)C3)ncn2)CC1 [Example 153] | 6.97 nM
O=C(c1cccc(F)c1)N1CCC(Nc2cc(C(=O)N3CC[C@@H](N4CCc5ccccc5C4)[C@H](O)C3)ncn2)CC1 [Example 172] | 20.5 nM
O=C(c1ccccn1)N1CCC(Nc2cc(C(=O)N3CC[C@@H](N4CCc5ccccc5C4)[C@H](O)C3)ncn2)CC1 [Example 173] | 51.2 nM
Cn1cc(C(=O)N2CCC(Nc3cc(C(=O)N4CC[C@@H](N5CCc6ccccc6C5)[C@H](O)C4)nc(OC4CCCC4)n3)CC2)cn1 [Example 193] | 6.4 nM
O=C(c1cc(NC2CCN(C(=O)c3cccs3)CC2)nc(OC2CCCC2)n1)N1CC[C@@H](N2CCc3ccccc3C2)[C@H](O)C1 [Example 194] | 4.5 nM
CCC(CC)Oc1nc(NC2CCN(C(=O)c3ccccc3)CC2)cc(C(=O)N2CC[C@@H](N3CCc4ccccc4C3)[C@H](O)C2)n1 [Example 202] | 5.2 nM
CC(C)Oc1nc(NC2CCN(C(=O)c3cccs3)CC2)cc(C(=O)N2CC[C@@H](N3CCc4ccccc4C3)[C@H](O)C2)n1 [Example 207] | 3.9 nM
CC(C)COc1nc(NC2CCN(C(=O)c3cnn(C)c3)CC2)cc(C(=O)N2CC[C@@H](N3CCc4ccccc4C3)[C@H](O)C2)n1 [Example 213] | 4.5 nM
Cc1ccc(C(=O)N2CCC(Nc3cc(C(=O)N4CC[C@@H](N5CCc6ccccc6C5)[C@H](O)C4)nc(N4CCCC4)n3)CC2)cc1 [Example 315] | 4.7 nM
COc1nc(NC2CCN(C(=O)c3ccc(C)cc3)CC2)cc(C(=O)N2CC[C@@H](N3CCc4ccccc4C3)[C@H](O)C2)n1 [Example 392, ((3R,4R)-4-(3,4-dihydroisoquinoline-2(1H)-yl)-3-hydroxypiperidine-1-yl)(2-methoxy-6-((1-(4-methylbenzoyl)piperidine-4-yl)amino)pyrimidine-4-yl)methanone hydrochloride] | 2.8 nM
[2H]C1([2H])CN([C@@H]2CCN(C(=O)c3cc(NC4CCN(C(=O)c5ccccc5)CC4)nc(OC(C)C)n3)C[C@H]2O)Cc2ccccc21 [Example 401, (6-((1-(benzoyl)piperidine-4-yl)amino)-2-isopropoxypyrimidine-4-yl)((3R,4R)-4-(3,4-dihydroisoquinoline-2(1H)-yl-4,4-d2)-3-hydroxypiperidine-1-1)methanone] | 7.9 nM

test system: Xenograft models of small cell lung cancer (SCLC), non-small cell lung cancer (NSCLC), acute myeloid leukemia (AML) and non-Hodgkin's lymphoma; experiment: not given; details: cited from earlier work

SMILES | tumor growth inhibition
Nc1nc2cc(CC[C@H]3C[C@@H](n4ccc5c(N)ncnc54)[C@H](O)[C@@H]3O)ccc2cc1Br [JNJ-64619178] | up to 99%

test system: not given; experiment: not given; details: Phase I, adult patients with solid tumors; cited from earlier work

SMILES | PK in plasma
CC(=O)N1CCC(Nc2cc(C(=O)NC[C@H](O)CN3CCc4ccccc4C3)ncn2)CC1 [GSK3326595] | dose-dependent
